The record followed here is PMC4906375, “Contribution of Amphipathicity and Hydrophobicity to the Antimicrobial Activity and Cytotoxicity of β-Hairpin Peptides” (ACS Infectious Diseases, 2016).

The structures appear in SMILES notation. Values after ≈ are worked out from the molar mass of the structure shown. Read-outs that look alike come from different tables or passages of the source. Residues, ends and D or L forms follow the SMILES beside them. A value given as a limit tells only on which side of the number the result lay.

For data set [1], the system named is S. aureus ATCC 43300 (MRSA). Description: microbe, parasite or virus in culture. Type of data set: cell-based, Staphylococcus aureus. Particulars: S. aureus ATCC 43300 (MRSA); n = 4. The protocol:
(§1) Both antibacterial and antifungal MIC assays were performed by a broth microdilution plate based method as per CLSI guidelines for antimicrobial susceptibility testing.[53],[54] […] Full assay details are included in the Supporting Information with a full list of strains tested in Table S1.
(§2) Antibacterial assay (Minimum Inhibitory Concentration [MIC]).
(§3) MIC assay was performed by a broth microdilution plate based method as per CLSI guidelines for antimicrobial susceptibility testing of aerobic bacteria.1 Compounds were prepared at 1.28 mg/mL solution in water. The tested strains, Table S1, were cultured in Luria broth (LB) (In Vitro Technologies, USB75852), at 37 °C overnight. A sample of culture was then diluted 40Pfold in fresh Muller Hinton broth (MHB) (Bacto laboratories, 211443) and incubated at 37 °C for 1.5P2 h. The compounds were serially diluted twoPfold across the wells, with compound concentrations ranging from 0.015 µg/mL to 512 µg/mL, plated in duplicate. The resultant midPlog phase cultures were diluted to the final concentration of 1×10^6 CFU/mL, then 50 µL was added to each well of the compoundP containing 96Pwell plates (Corning 3641, NonPbinding Surface [NBS]), giving a final compound concentration range of 0.008 µg/mL to 256 µg/mL and 5x10^5 CFU/mL. All the plates were covered and incubated at 37 °C for 18 h. MICs were determined visually, being defined as the lowest concentration showing no visible growth. Resazurin was added at 0.001% final concentration to each well and incubated for 2 h before MICs were rePread for confirmation using the colour change from blue to pink to indicate wells containing viable cells. The resazurin assay was added in some wells where some form of precipitate was present in otherwise clear wells, making it difficult to ascertain which wells had visible […]
(§4) Antifungal assay (Minimum Inhibitory Concentration [MIC]). MIC assay was performed by a broth microdilution plate based method as per CLSI guidelines for antimicrobial susceptibility testing.2 Fungi strains, Table S1, were cultured for 3 days on Yeast ExtractPPeptone Dextrose (YPD) (SigmaPAldrich, Y1500) agar at 30 °C. A yeast suspension of 1x10^6 to 5x10^6 CFU/mL was prepared from five colonies. These stock suspensions were diluted with Yeast Nitrogen Base (YNB) (Becton Dickinson, 233520) broth to a final concentration of 2.5 ×10^3 CFU/mL. All samples, compounds and standards were plated in 96Pwell plates (Corning 3641, NonPbinding Surface [NBS]), by adding 10 µL of 1.28 mg/mL stock solution to each well and 90 µL of media. Then, the samples were serial diluted (1:2) in 12 concentrations across the plate. The standard antifungal ranged from 256

The nature of data set [2]: Plasma protein binding, ultrafiltration. Type of data set: in vitro ADME. The following applies: 100% human plasma, read-out: PPB (%) (converted). On the procedure: Plasma protein binding was performed using an ultrafiltration method.[58]
Plasma protein binding assay
Plasma protein binding was performed using an Ultrafiltration method.13 Fresh frozen human plasma was pooled from O Negative (Product number 1274512) blood from the R & D division of the Australian Red Cross Blood Services (Brisbane). Stock solutions (20 mg/mL) of the test compounds were prepared in H2O. Test compounds (40 µg/mL) were incubated in 100 % human plasma at 37 °C for 30 min (1 mL volume). For unfiltered samples, an aliquot (50 µL) was removed, diluted with PBS (50 µL) and quenched with icePcold precipitating solution comprising 0.5 µM carbutamide MS internal standard in acetonitrile : methanol : formic acid (1: 1 : 0.001). Samples were incubated at 4 °C for 30 min then centrifuged at 14000 × g for 8 min, with the clear supernatant transferred to a vial for LC/MS/MS analysis.
For filtered samples, the plasma sample (250 µL) was filtered using Amicon UltraP0.5 Centrifugal Filter Devices 30K NMWL at 14000 × g for 7 min and then an aliquot (50 µL) was processed as described for unfiltered samples. The fraction of unbound compound was calculated by determining the concentration of the filtered sample and the concentration of unfiltered sample. All samples were performed in triplicate with sulfamethoxazole as a […]

The nature of data set [3]: Cytotoxicity, Alamar Blue (resazurin) assay. The following applies: human. The format is cell-based, human. On the procedure: Cytotoxicity to HEK293 and HepG2 cells was determined using the Alamar Blue (resazurin) assay,[55],[56] with 24 h of incubation and either 1 or 10% serum concentration. Full assay details are included in the Supporting Information.
Cytotoxicity. Cytotoxicity to HEK293 and HepG2 cells was determined using the Alamar Blue (resazurin) assay,3, 4 For the assays supplemented with 1 % FBS as final concentration the cells were seeded one day prior to the assay (3,000 per 20 µL for HEK293 and 4,000 per 20 µL for HepG2) with DMEM + 2 % FBS. The compounds were prepared as described below, using DMEM with no FBS instead to give the final FBS concentration of 1 %.
The highest concentration the compounds were tested was 300 µg/mL. A dilution series of 1:3 fold steps in DMEM (GIBCOPInvitrogen, cat. no. 11995P073) + 10 % FBS was created (concentration range of 600 µg/mL – 0.28 µg/mL), and 20 µL of these 2x concentrated compound dilutions were added in duplicates to wells of a black wall, clear bottom 384Pwells cell culture plate. For the assays with 1 % FBS the compounds in 0 % FBS were added to the existing cell plates in 2 % FBS. 200 µM Tamoxifen (Sigma T5648) served as negative control and in addition a serial dilution of tamoxifen, starting at 200 µM (74 µg/mL), was included as a dose response control (1 in 2 dilution series for tamoxifen). For the assay with 10 % FBS, HepG2 cells were seeded at 5000 cells per well, in a volume of 20 µL in DMEM medium + 10 % of FBS and added to the 20 µL of compound solution (total volume of 40 µL), resulting in a final compound concentration range of 300 µg/mL to 0.14 µg/mL.
Cells were incubated together with the compounds for 20 h at 37 °C, 5 % CO2.
After the incubation, 5 µL of 100 µM (25 µg/mL) resazurin dissolved in PBS (final concentration was approximately 11 µM) was added to each well. The plates were then incubated for 3 h at 37 °C, 5 % CO2. The fluorescence intensity was read using the TECAN Infinite M1000 PRO with excitation/emission 560/590. The data was analysed by Graph Pad Prism software. Results are presented as the average percentage of control ± SD for each set of duplicate wells using the following equation: Cell survival % = (FISAMPLE – FINegative/FIUNTREATED –FINegative)*100. (100 µg/mL tamoxifen was set as 0 % survival, media

In data set [4] the test system is K. pneumoniae ATCC 13883. The format is cell-based, Klebsiella pneumoniae. Particulars: ATCC 13883. On the procedure:
as §1, §2, §3, §4

The mark [5] stands for this setting: HEK293 cells, HEK293, 1% FBS, read-out: cytotoxicity HEK293 1% FBS.
Where [6] appears, read: HEK293 cells, HEK293, 10% FBS, read-out: cytotoxicity HEK293 10% FBS.
[7] abbreviates: HepG2 cells, HepG2, 1% FBS, read-out: cytotoxicity HepG2 1% FBS.
Where [8] appears, read: HepG2 cells, HepG2, 10% FBS, read-out: cytotoxicity HepG2 10% FBS.

As for `CC(C)[C@@H]1NC(=O)CNC(=O)[C@H](CC(N)=O)NC(=O)[C@H](CCCNC(=N)N)NC(=O)[C@H](Cc2ccc(O)cc2)NC(=O)[C@H](C(C)C)NC(=O)[C@@H]2CSSC[C@H](NC(=O)[C@H](C(C)C)NC(=O)[C@H](CCCNC(=N)N)NC1=O)C(=O)N[C@@H](Cc1ccc(O)cc1)C(=O)N[C@@H](CCCNC(=N)N)C(=O)N[C@@H](CCCNC(=N)N)C(=O)N[C@H](C(=O)N[C@@H](CC(N)=O)C(=O)O)CSSC[C@H](NC(=O)[C@H](Cc1ccccc1)NC(=O)CN)C(=O)N[C@@H](Cc1c[nH]c3ccccc13)C(=O)N[C@@H](Cc1ccc(O)cc1)C(=O)N[C@@H](C(C)C)C(=O)N2` [arenicin-3] (HELM PEPTIDE1{G.F.C.W.Y.V.C.V.Y.R.N.G.V.R.V.C.Y.R.R.C.N}$PEPTIDE1,PEPTIDE1,3:R3-20:R3|PEPTIDE1,PEPTIDE1,7:R3-16:R3$$$V2.0), the MIC in data set [1] amounted to 64 mg/L (≈ 24.5 µM); in data set [4], 1 mg/L (≈ 0.383 µM). Also, the fraction unbound in data set [2] was 0.32. For the same compound, the CC50 at 24 h was 105 ± 1.8 mg/L (≈ 40 µM) in data set [3] (setting [5]), over 300 mg/L in data set [3] (setting [6]), 95.2 ± 4.1 mg/L (≈ 36.4 µM) in data set [3] (setting [7]) and over 300 mg/L in data set [3] (setting [8]).
For the compound `CC(C)[C@@H]1NC(=O)[C@H](CCCNC(=N)N)NC(=O)[C@H](Cc2ccccc2)NC(=O)[C@@H](NC(=O)[C@H](Cc2c[nH]c3ccccc23)NC(=O)[C@H](CCCNC(=N)N)NC(=O)[C@@H](N)CCCNC(=N)N)CSSC[C@@H](C(=O)N[C@@H](CCCNC(=N)N)C(N)=O)NC(=O)[C@H](CCCCN)NC(=O)[C@H](CCCNC(=N)N)NC(=O)[C@H](Cc2ccc(O)cc2)NC(=O)[C@@H]2CSSC[C@H](NC1=O)C(=O)N[C@@H](Cc1ccc(O)cc1)C(=O)N[C@@H](CCCNC(=N)N)C(=O)NCC(=O)N[C@@H](Cc1ccccc1)C(=O)N2` [polyphemusin-1] (HELM PEPTIDE1{R.R.W.C.F.R.V.C.Y.R.G.F.C.Y.R.K.C.R.[am]}$PEPTIDE1,PEPTIDE1,4:R3-17:R3|PEPTIDE1,PEPTIDE1,8:R3-13:R3$$$V2.0), the results for the MIC in data set [1] and in data set [4] were 2 mg/L (≈ 0.815 µM) and 0.5 mg/L (≈ 0.204 µM), respectively. Moreover, the fraction unbound in data set [2] was 0.37. Also, the CC50 at 24 h in data set [3] (setting [5]) was 36.6 ± 1.4 mg/L (≈ 14.9 µM); in data set [3] (setting [6]), 188.5 ± 1.1 mg/L (≈ 76.8 µM); in data set [3] (setting [7]), 36.5 ± 8.6 mg/L (≈ 14.9 µM); in data set [3] (setting [8]), 254 ± 14.2 mg/L (≈ 104 µM).
For `[H][C@]12CSSC[C@]([H])(NC(=O)[C@]([H])([C@@H](C)CC)NC(=O)CNC(=O)[C@H](CCCNC(=N)N)NC(=O)[C@H](Cc3ccc(O)cc3)NC1=O)C(=O)N[C@@H](Cc1ccc(O)cc1)C(=O)N[C@@H](CCCNC(=N)N)C(=O)N[C@@H](CCCNC(=N)N)C(=O)N[C@H](C(=O)N[C@@H](CCCNC(=N)N)C(N)=O)CSSC[C@H](NC(=O)[C@H](Cc1c[nH]c3ccccc13)NC(=O)[C@@H](N)CCCCN)C(=O)N[C@@H](Cc1ccccc1)C(=O)N[C@@H](CCCNC(=N)N)C(=O)N[C@@H](C(C)C)C(=O)N2` [tachyplesin-1] (HELM PEPTIDE1{K.W.C.F.R.V.C.Y.R.G.I.C.Y.R.R.C.R.[am]}$PEPTIDE1,PEPTIDE1,3:R3-16:R3|PEPTIDE1,PEPTIDE1,7:R3-12:R3$$$V2.0), the MIC in data set [1] amounted to 1 mg/L (≈ 0.442 µM); in data set [4], 0.125 mg/L (≈ 0.0552 µM). The fraction unbound in data set [2] is 0.24. Besides, the CC50 at 24 h in data set [3] (setting [5]) was 94.7 ± 1.1 mg/L (≈ 41.8 µM); in data set [3] (setting [6]), over 300 mg/L; in data set [3] (setting [7]) it was 65.7 ± 1.5 mg/L (≈ 29 µM); in data set [3] (setting [8]) it was over 300 mg/L.
Regarding `CC[C@H](C)[C@H](NC(=O)[C@@H](NC(=O)[C@@H]1CCCN1C(=O)[C@@H](NC(=O)[C@@H]1CCCN1C(=O)[C@H](CCCCN)NC(=O)[C@H](CCCCN)NC(=O)[C@H](CO)NC(=O)CN)C(C)C)[C@@H](C)CC)C(=O)N[C@@H](Cc1ccc(O)cc1)C(=O)N[C@H]1CSSC[C@@H](C(=O)N[C@@H](CCC(N)=O)C(=O)N[C@@H](CCCNC(=N)N)C(=O)N[C@@H](CCSC)C(N)=O)NC(=O)[C@H](CCCCN)NC(=O)CNC(=O)[C@H]([C@@H](C)O)NC(=O)[C@H](CCCNC(=N)N)NC(=O)[C@H](CCCNC(=N)N)NC(=O)[C@H](CC(N)=O)NC1=O` [thanatin], the MIC came to 256 mg/L (≈ 105 µM) in data set [1] and 8 mg/L (≈ 3.29 µM) in data set [4]. The fraction unbound in data set [2] was 0.08. The CC50 at 24 h in data set [3] (setting [5]), in data set [3] (setting [6]), in data set [3] (setting [7]) and in data set [3] (setting [8]) was over 300 mg/L each time.
